Measured values taken from PubChem BioAssay AID248 (DTP/NCI, 2004).
Where “and” joins values, the source holds several entries; their conditions need not be identical. Identical values can stand only once. Inconclusive results and toxic doses are left out. No stated cut-off is given here; in the data, active means T/C of 150% or more; inactive means T/C below 125%.

Test system: L1210 leukemia ip in BDF1 mice, survival T/C
Assay: NCI In Vivo Anticancer Drug Screen. Data for tumor model L1210 Leukemia (intraperitoneal) in B6D2F1 (BDF1) mice
Conditions: endpoint: mean survival time, higher = longer survival
In short: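 Mice bearing the transplanted tumor received compound or vehicle. Survival of the treated group was divided by that of the vehicle-treated control group to give the ratio.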

[1] = dose: 100.0 mg/kg/injection, schedule: Q04DX003 (ip), vehicle: Klucel (hydroxypropylcellulose) (HPC)
[2] = dose: 200.0 mg/kg/injection, schedule: Q04DX003 (ip), vehicle: Klucel (hydroxypropylcellulose) (HPC)
[3] = dose: 400.0 mg/kg/injection, schedule: Q04DX003 (ip), vehicle: Klucel (hydroxypropylcellulose) (HPC)

Measured: T/C

Cc1ccc(CNc2ccc(Br)cc2)cc1
inactive: dose: 100.0 mg/kg/injection, schedule: Q01DX009 (ip), vehicle: Klucel (hydroxypropylcellulose) (HPC) 96 % of control | [1] 101 % of control | dose: 200.0 mg/kg/injection, schedule: Q01DX009 (ip), vehicle: Klucel (hydroxypropylcellulose) (HPC) 99 % of control | [2] 102 % of control | dose: 400.0 mg/kg/injection, schedule: Q01DX009 (ip), vehicle: Klucel (hydroxypropylcellulose) (HPC) 94 % of control | [3] 101 % of control

O=C(Nc1ccc(C(=O)Nc2cc(S(=O)(=O)O)cc3cccc(S(=O)(=O)O)c23)cc1)Nc1ccc(C(=O)Nc2cc(S(=O)(=O)O)cc3cccc(S(=O)(=O)O)c23)cc1
inactive: dose: 37.5 mg/kg/injection, schedule: Q04DX003 (ip), vehicle: carboxymethylcellulose (CMC) 97 % of control | dose: 75.0 mg/kg/injection, schedule: Q01DX001 (ip), vehicle: carboxymethylcellulose (CMC) 93 % of control | dose: 75.0 mg/kg/injection, schedule: Q04DX003 (ip), vehicle: carboxymethylcellulose (CMC) 101 % of control | dose: 150.0 mg/kg/injection, schedule: Q01DX001 (ip), vehicle: carboxymethylcellulose (CMC) 105 % of control | dose: 150.0 mg/kg/injection, schedule: Q04DX003 (ip), vehicle: carboxymethylcellulose (CMC) 95 % of control

O=C1C(N2CCCCC2)=C(N2CC2)C(=O)C(N2CCCCC2)=C1N1CC1
inactive: dose: 0.39 mg/kg/injection, schedule: Q04DX003 (ip), vehicle: saline 94 % of control and 96 % of control | dose: 0.78 mg/kg/injection, schedule: Q04DX003 (ip), vehicle: saline 100 % of control and 103 % of control | dose: 1.56 mg/kg/injection, schedule: Q04DX003 (ip), vehicle: saline 103 % of control and 107 % of control | dose: 3.12 mg/kg/injection, schedule: Q04DX003 (ip), vehicle: saline 103 % of control and 107 % of control | dose: 6.25 mg/kg/injection, schedule: Q04DX003 (ip), vehicle: saline 96 % of control and 100 % of control | dose: 10.0 mg/kg/injection, schedule: Q01DX001 (ip), vehicle: saline 86 % of control | dose: 12.5 mg/kg/injection, schedule: Q04DX003 (ip), vehicle: saline 103 % of control and 122 % of control | dose: 20.0 mg/kg/injection, schedule: Q01DX001 (ip), vehicle: saline 99 % of control | dose: 35.0 mg/kg/injection, schedule: Q04DX003 (ip), vehicle: saline 101 % of control | dose: 40.0 mg/kg/injection, schedule: Q01DX001 (ip), vehicle: saline 93 % of control | dose: 55.0 mg/kg/injection, schedule: Q04DX003 (ip), vehicle: saline 90 % of control | dose: 80.0 mg/kg/injection, schedule: Q01DX001 (ip), vehicle: saline 108 % of control | dose: 80.0 mg/kg/injection, schedule: Q04DX003 (ip), vehicle: saline 88 % of control

COC1=C(N=[N+]=[N-])C(=O)C(OC)=C(N=[N+]=[N-])C1=O
inactive: dose: 2.0 mg/kg/injection, schedule: Q01DX009 (ip), vehicle: carboxymethylcellulose (CMC) 93 % of control | dose: 2.5 mg/kg/injection, schedule: Q01DX001 (ip), vehicle: carboxymethylcellulose (CMC) 95 % of control | dose: 4.0 mg/kg/injection, schedule: Q01DX009 (ip), vehicle: carboxymethylcellulose (CMC) 98 % of control | dose: 5.0 mg/kg/injection, schedule: Q01DX001 (ip), vehicle: carboxymethylcellulose (CMC) 91 % of control | dose: 5.0 mg/kg/injection, schedule: Q04DX003 (ip), vehicle: carboxymethylcellulose (CMC) 93 % of control | dose: 8.0 mg/kg/injection, schedule: Q01DX009 (ip), vehicle: carboxymethylcellulose (CMC) 104 % of control | dose: 10.0 mg/kg/injection, schedule: Q01DX001 (ip), vehicle: carboxymethylcellulose (CMC) 95 % of control and 100 % of control | dose: 10.0 mg/kg/injection, schedule: Q04DX003 (ip), vehicle: carboxymethylcellulose (CMC) 110 % of control | dose: 20.0 mg/kg/injection, schedule: Q01DX001 (ip), vehicle: carboxymethylcellulose (CMC) 98 % of control | dose: 20.0 mg/kg/injection, schedule: Q04DX003 (ip), vehicle: carboxymethylcellulose (CMC) 90 % of control | dose: 30.0 mg/kg/injection, schedule: Q04DX003 (ip), vehicle: saline with Tween-80 93 % of control | dose: 36.25 mg/kg/injection, schedule: Q01DX009 (ip), vehicle: saline 114 % of control | dose: 45.0 mg/kg/injection, schedule: Q04DX003 (ip), vehicle: saline with Tween-80 104 % of control | dose: 65.0 mg/kg/injection, schedule: Q04DX003 (ip), vehicle: saline with Tween-80 100 % of control | dose: 72.5 mg/kg/injection, schedule: Q01DX009 (ip), vehicle: saline 100 % of control | dose: 95.0 mg/kg/injection, schedule: Q04DX003 (ip), vehicle: saline 94 % of control | dose: 145.0 mg/kg/injection, schedule: Q01DX009 (ip), vehicle: saline 86 % of control | dose: 145.0 mg/kg/injection, schedule: Q04DX003 (ip), vehicle: saline 92 % of control

CC1=NCCN1CCN=C(N)CCl
inactive: dose: 12.5 mg/kg/injection, schedule: Q04DX002 (ip), vehicle: saline 107 % of control | dose: 25.0 mg/kg/injection, schedule: Q01DX009 (ip), vehicle: saline 111 % of control | dose: 25.0 mg/kg/injection, schedule: Q04DX002 (ip), vehicle: saline 91 % of control | dose: 50.0 mg/kg/injection, schedule: Q01DX009 (ip), vehicle: saline 101 % of control | dose: 50.0 mg/kg/injection, schedule: Q04DX002 (ip), vehicle: saline 91 % of control

CC(C)(C(=O)Oc1ccccc1)C(=O)Oc1ccccc1
inactive: dose: 50.0 mg/kg/injection, schedule: Q01DX009 (ip), vehicle: saline with Tween-80 95 % of control | dose: 100.0 mg/kg/injection, schedule: Q01DX009 (ip), vehicle: saline with Tween-80 100 % of control | dose: 200.0 mg/kg/injection, schedule: Q01DX009 (ip), vehicle: saline with Tween-80 88 % of control

O=C1c2ccccc2S(=O)(=O)N1CCN1C(=O)c2ccccc2S1(=O)=O
inactive: [1] 94 % of control | [2] 93 % of control | [3] 94 % of control

N/C(=N\c1nc(-c2ccccc2)cc(-c2ccccc2O)n1)N1CCOCC1
inactive: dose: 100.0 mg/kg/injection, schedule: Q04DX002 (ip), vehicle: Klucel (hydroxypropylcellulose) (HPC) 98 % of control | dose: 200.0 mg/kg/injection, schedule: Q04DX002 (ip), vehicle: Klucel (hydroxypropylcellulose) (HPC) 98 % of control | dose: 400.0 mg/kg/injection, schedule: Q04DX002 (ip), vehicle: Klucel (hydroxypropylcellulose) (HPC) 95 % of control
